Measurements: US10501518B2 (priority 2013, dated 2019)
One block for each molecule: values may come before it. Starred links: 1 amine or outer side, 2 acyl side, 3 side chain; linkers in the order of their positions; H or OH if unused. Non-standard residues stand in square brackets, D forms with d. Residues, ends and D or L forms follow the SMILES beside them. *: point of attachment. NH(1S,2S-2-CONH2-cPent) = NC(=O)[C@H]1CCC[C@@H]1N*; X12 = O=C([C@H]1CCC[C@@H]1N[*:1])[*:2]; X13 = O=C([C@H]1CNC[C@@H]1N[*:1])[*:2]; ACPC(1S,2S) = N[C@H]1CCC[C@@H]1C(=O)*; β3hA = C[C@H](N)CC(=O)O

What was measured:
Assay type in all cases: cell-based
delNT PTHR1 = target: T1, delNT PTHR1 (Homo sapiens, UniProt Q03431, DEL24-181); experiment: cAMP-inducing potency at truncated receptor delNT PTHR1; conditions: for Fold PTH, nM (deINT PTHR1): EC50 relative to PTH(1-34)
T1 construct: expressed in transfected cells
T1 sequence (Q03431 with tags, fused parts or gaps DEL24-181): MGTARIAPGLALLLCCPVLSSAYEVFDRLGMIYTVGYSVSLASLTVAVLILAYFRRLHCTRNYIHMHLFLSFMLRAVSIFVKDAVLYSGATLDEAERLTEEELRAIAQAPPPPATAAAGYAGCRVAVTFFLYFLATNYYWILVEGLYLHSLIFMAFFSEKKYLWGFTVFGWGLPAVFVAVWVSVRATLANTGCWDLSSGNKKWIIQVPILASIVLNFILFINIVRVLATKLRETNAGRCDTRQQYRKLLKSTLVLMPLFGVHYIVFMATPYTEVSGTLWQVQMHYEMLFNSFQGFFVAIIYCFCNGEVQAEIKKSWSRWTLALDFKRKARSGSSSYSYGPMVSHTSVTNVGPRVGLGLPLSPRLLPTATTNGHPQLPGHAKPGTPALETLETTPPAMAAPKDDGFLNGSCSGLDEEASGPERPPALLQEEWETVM

WT human PTHR-1 = target: T2, WT human PTHR-1 (Homo sapiens, UniProt Q03431); experiment: cAMP GloSensor dose-response in GP-2.3 cells expressing human PTHR-1; conditions: Table 8
T2 construct: bioactivity of the resulting compound in full-length hPTHR-1 and a truncated version; expressed in transfected cells
T2 sequence (Q03431 27-593): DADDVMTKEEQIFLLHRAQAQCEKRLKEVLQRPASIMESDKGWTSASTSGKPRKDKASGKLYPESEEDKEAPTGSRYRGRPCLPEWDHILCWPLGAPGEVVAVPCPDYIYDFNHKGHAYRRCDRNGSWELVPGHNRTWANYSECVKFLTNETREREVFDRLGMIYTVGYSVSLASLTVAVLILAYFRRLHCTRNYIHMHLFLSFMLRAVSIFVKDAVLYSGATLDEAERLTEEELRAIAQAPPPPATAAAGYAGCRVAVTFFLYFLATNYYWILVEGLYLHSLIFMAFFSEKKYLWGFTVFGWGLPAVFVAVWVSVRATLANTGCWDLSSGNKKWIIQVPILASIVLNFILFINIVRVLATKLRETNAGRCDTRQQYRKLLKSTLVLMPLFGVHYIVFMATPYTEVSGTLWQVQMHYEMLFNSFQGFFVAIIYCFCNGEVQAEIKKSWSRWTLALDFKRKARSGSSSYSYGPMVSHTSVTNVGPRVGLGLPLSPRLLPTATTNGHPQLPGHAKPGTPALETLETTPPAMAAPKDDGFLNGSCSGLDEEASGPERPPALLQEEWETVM
Procedure: FIGS. 8A, 8B, and 8C constitute a series of graphs depicting cAMP responses in GP-2.3 cells expressing wild-type human parathyroid hormone receptor 1 (PTHR-1-WT). […] Data are means (±SEM) of n>4 experiments, each performed in duplicate.
For cAMP dose-response assays, monolayers of confluent HEK 293 cells were pre-incubated with buffer containing d-luciferin (0.5 mM) in 96 well plates at room temperature until a stable baseline level of luminescence was established (30 min). Varying concentrations of agonist were then added, and the time course of luminescence response was recorded using a Perkin Elmer plate reader following α/β-peptide addition.

PTHR = target: T3, PTHR (Homo sapiens, UniProt Q03431); experiment: cAMP induction potency, N-terminal modifications and cyclic constraints (Tables 9, 10, 13); conditions: Table 9
T3 construct: expressed in transfected cells
T3 sequence (Q03431 27-593): T2 sequence (Q03431 27-593)

PTH2R/PTH1R = experiment: cAMP response selectivity between PTH2R and PTH1R; conditions: most selective; for cAMP response PTH2R/PTH1R: Table 16; for cAMP response PTH1R/PTH2R: Table 17
Source text: Selected analogs containing beta-amino acid substitutions selectively signal through one or the other of the two receptors. Without being bound to any underling biological phenomenon or mechanism, PTHR-2 likely serves an alternative function to PTHR-1 as it is highly expressed in the central nervous system. In contrast, PTHR-1 is highly expressed in bone and kidney, but not in the CNS. The analogs disclosed herein are thus useful as therapeutic compounds that a specific agonists or antagonists of PTHR-1 and PTHR-2.

Molecule: CSCC[C@H](NC(=O)[C@H]1CCC[C@@H]1NC(=O)[C@H](CCC(N)=O)NC(=O)[C@H]1CCC[C@@H]1NC(=O)[C@H](CCC(=O)O)NC(=O)[C@H](CO)NC(=O)[C@@H](NC(=O)[C@H]1CCC[C@@H]1N)C(C)C)C(=O)N[C@@H](Cc1c[nH]cn1)C(=O)N[C@@H](CC(N)=O)C(=O)N[C@@H](CC(C)C)C(=O)NCC(=O)N[C@@H](CCCCN)C(=O)N[C@H]1CCC[C@@H]1C(=O)N[C@@H](CC(C)C)C(=O)N[C@@H](CC(N)=O)C(=O)N[C@@H](CO)C(=O)N[C@H]1CCC[C@@H]1C(=O)N[C@@H](CCC(=O)O)C(=O)N[C@@H](CCCNC(=N)N)C(=O)N[C@H](C(=O)N[C@H]1CNC[C@@H]1C(=O)N[C@@H](Cc1c[nH]c2ccccc12)C(=O)N[C@@H](CC(C)C)C(=O)N[C@@H](CCCNC(=N)N)C(=O)N[C@H]1CNC[C@@H]1C(=O)N[C@@H](CCCCN)C(=O)N[C@@H](CC(C)C)C(=O)N[C@@H](CCC(N)=O)C(=O)N[C@H]1CCC[C@@H]1C(=O)N[C@H](C(=O)N[C@@H](Cc1c[nH]cn1)C(=O)N[C@@H](CC(N)=O)C(=O)N[C@H]1CCC[C@@H]1C(N)=O)C(C)C)C(C)C [FcycD6_ACPC(1,5,7), XVSEXQXMHNLGKXLNSXERVZWLRZKLQXVHNX-NH2] ({ACPC(1S,2S)}-VSE[X12]Q[X12]MHNLGK[X12]LNS[X12]ERV[X13]WLR[X13]KLQ[X12]VHN-{NH(1S,2S-2-CONH2-cPent)}; N-terminus assumed)
Fold PTH (PTHR): 234 | cAMP response PTH2R/PTH1R (PTH2R/PTH1R): 45

Molecule: hPTHrP(1-36): parathyroid hormone-related protein fragment, comparator in the PTH2R/PTH1R cAMP response tables
cAMP response PTH2R/PTH1R (PTH2R/PTH1R): 0.04 | cAMP response PTH1R/PTH2R (PTH2R/PTH1R): 27

Molecule: hTIP(1-39): comparator peptide in the PTH2R/PTH1R cAMP response tables (SLALADDAAFRERARLLAALERRHWLNSYMHKLLVLDAP)
cAMP response PTH2R/PTH1R (PTH2R/PTH1R): 165 | cAMP response PTH1R/PTH2R (PTH2R/PTH1R): 0.01

Other lines, results leading:

cAMP-inducing potency in delNT PTHR-1, in words (delNT PTHR1): weak or no potency
Molecule: CC[C@H](C)[C@H](NC(=O)[C@H](CCC(=O)O)NC(=O)[C@H](CO)NC(=O)[C@@H](NC(=O)[C@@H](N)CO)C(C)C)C(=O)N[C@@H](CCC(N)=O)C(=O)N[C@H](CC(=O)N[C@@H](CCSC)C(=O)N[C@@H](Cc1c[nH]cn1)C(=O)N[C@@H](CC(N)=O)C(=O)N[C@@H](CC(C)C)C(=O)NCC(=O)N[C@@H](CCCCN)C(=O)N[C@@H](Cc1c[nH]cn1)C(=O)N[C@@H](CC(C)C)C(=O)N[C@@H](CC(N)=O)C(=O)N[C@@H](CO)C(=O)N[C@@H](CCSC)C(=O)N[C@@H](CCC(=O)O)C(=O)N[C@@H](CCCNC(=N)N)C(=O)N[C@H](C(=O)N[C@@H](CCC(=O)O)C(=O)N[C@@H](Cc1c[nH]c2ccccc12)C(=O)N[C@@H](CC(C)C)C(=O)N[C@@H](CCCNC(=N)N)C(=O)N[C@@H](CCCCN)C(=O)N[C@@H](CCCCN)C(=O)N[C@@H](CC(C)C)C(=O)N[C@@H](CCC(N)=O)C(=O)N[C@@H](CC(=O)O)C(=O)N[C@H](C(=O)N[C@@H](Cc1c[nH]cn1)C(=O)N[C@@H](CC(N)=O)C(=O)N[C@@H](Cc1ccccc1)C(N)=O)C(C)C)C(C)C)CC(C)C [β^3Leu(7)]

hPTHR1 EC50, nM (Means ± SEM) (WT human PTHR-1; cAMP-inducing potency, N-terminal modifications): No activity | Fold PTH, nM (deINT PTHR1) (delNT PTHR1; Table 8): 87
Molecule: CC[C@H](C)[C@H](NC(=O)[C@H](CCC(=O)O)NC(=O)[C@H](CO)NC(=O)[C@@H](NC(=O)[C@@H](N)CO)C(C)C)C(=O)N[C@@H](CCC(N)=O)C(=O)N[C@@H](CC(C)C)C(=O)N[C@@H](CCSC)C(=O)N[C@H]1CNC[C@@H]1C(=O)N[C@@H](CC(N)=O)C(=O)N[C@@H](CC(C)C)C(=O)NCC(=O)N[C@@H](CCCCN)C(=O)N[C@@H](Cc1c[nH]cn1)C(=O)N[C@@H](CC(C)C)C(=O)N[C@@H](CC(N)=O)C(=O)N[C@@H](CO)C(=O)N[C@@H](CCSC)C(=O)N[C@@H](CCC(=O)O)C(=O)N[C@@H](CCCNC(=N)N)C(=O)N[C@H](C(=O)N[C@@H](CCC(=O)O)C(=O)N[C@@H](Cc1c[nH]c2ccccc12)C(=O)N[C@@H](CC(C)C)C(=O)N[C@@H](CCCNC(=N)N)C(=O)N[C@@H](CCCCN)C(=O)N[C@@H](CCCCN)C(=O)N[C@@H](CC(C)C)C(=O)N[C@@H](CCC(N)=O)C(=O)N[C@@H](CC(=O)O)C(=O)N[C@H](C(=O)N[C@@H](Cc1c[nH]cn1)C(=O)N[C@@H](CC(N)=O)C(=O)N[C@@H](Cc1ccccc1)C(N)=O)C(C)C)C(C)C [APC(9)] (H-SVSEIQLM[X13]NLGKHLNSMERVEWLRKKLQDVHNF-NH2; N-terminus assumed)

cAMP-inducing potency in delNT PTHR-1, in words (delNT PTHR1): weak or no potency | deINT PTHR1 EC50, nM (Means ± SEM) (delNT PTHR1; Table 8, truncated receptor lacking Ala^24-Arg^181): No activity
Molecule: CC[C@H](C)[C@@H](CC(=O)N[C@@H](CCC(N)=O)C(=O)N[C@@H](CC(C)C)C(=O)N[C@@H](CCSC)C(=O)N[C@@H](Cc1c[nH]cn1)C(=O)N[C@@H](CC(N)=O)C(=O)N[C@@H](CC(C)C)C(=O)NCC(=O)N[C@@H](CCCCN)C(=O)N[C@@H](Cc1c[nH]cn1)C(=O)N[C@@H](CC(C)C)C(=O)N[C@@H](CC(N)=O)C(=O)N[C@@H](CO)C(=O)N[C@@H](CCSC)C(=O)N[C@@H](CCC(=O)O)C(=O)N[C@@H](CCCNC(=N)N)C(=O)N[C@H](C(=O)N[C@@H](CCC(=O)O)C(=O)N[C@@H](Cc1c[nH]c2ccccc12)C(=O)N[C@@H](CC(C)C)C(=O)N[C@@H](CCCNC(=N)N)C(=O)N[C@@H](CCCCN)C(=O)N[C@@H](CCCCN)C(=O)N[C@@H](CC(C)C)C(=O)N[C@@H](CCC(N)=O)C(=O)N[C@@H](CC(=O)O)C(=O)N[C@H](C(=O)N[C@@H](Cc1c[nH]cn1)C(=O)N[C@@H](CC(N)=O)C(=O)N[C@@H](Cc1ccccc1)C(N)=O)C(C)C)C(C)C)NC(=O)[C@H](CCC(=O)O)NC(=O)[C@H](CO)NC(=O)[C@@H](NC(=O)[C@@H](N)CO)C(C)C [β^3Ile(5)]

Fold PTH, nM (hPTHR1) (WT human PTHR-1; EC50 relative to PTH(1-34)): 2.2 | EC50 (WT human PTHR-1; cAMP-inducing potency, N-terminal modifications, read-out: hPTHR1 EC50, nM (Means ± SEM)): 0.2 ± 0.09 nM | Fold PTH, nM (deINT PTHR1) (delNT PTHR1; Table 8): 0.4
Molecule: CC[C@H](C)[C@H](NC(=O)[C@H](CCC(=O)O)NC(=O)[C@H](CO)NC(=O)[C@@H](NC(=O)C[C@H](C)N)C(C)C)C(=O)N[C@@H](CCC(N)=O)C(=O)N[C@@H](CC(C)C)C(=O)N[C@@H](CCSC)C(=O)N[C@@H](Cc1c[nH]cn1)C(=O)N[C@@H](CC(N)=O)C(=O)N[C@@H](CC(C)C)C(=O)NCC(=O)N[C@@H](CCCCN)C(=O)N[C@@H](Cc1c[nH]cn1)C(=O)N[C@@H](CC(C)C)C(=O)N[C@@H](CC(N)=O)C(=O)N[C@@H](CO)C(=O)N[C@@H](CCSC)C(=O)N[C@@H](CCC(=O)O)C(=O)N[C@@H](CCCNC(=N)N)C(=O)N[C@H](C(=O)N[C@@H](CCC(=O)O)C(=O)N[C@@H](Cc1c[nH]c2ccccc12)C(=O)N[C@@H](CC(C)C)C(=O)N[C@@H](CCCNC(=N)N)C(=O)N[C@@H](CCCCN)C(=O)N[C@@H](CCCCN)C(=O)N[C@@H](CC(C)C)C(=O)N[C@@H](CCC(N)=O)C(=O)N[C@@H](CC(=O)O)C(=O)N[C@H](C(=O)N[C@@H](Cc1c[nH]cn1)C(=O)N[C@@H](CC(N)=O)C(=O)N[C@@H](Cc1ccccc1)C(N)=O)C(C)C)C(C)C [β^3Ala(1)] (H-[β3hA]VSEIQLMHNLGKHLNSMERVEWLRKKLQDVHNF-NH2)
